# Like-named read-outs stand apart in the source and are kept apart here.
# How the values were obtained:
# [1] = system: IL-6 production in primary human mesangial cells; experiment: ET-1 induced IL-6 production (ELISA) in primary human renal mesangial cells; type: cell-based; settings: 72 hours; 10 ng/mL ET-1; read-out: IC50, ET-1 stimulated IL-6 production in HRMCs
# ET-1 stimulated HRMC = experiment: Hallmark gene set enrichment in ET-1 stimulated HRMC treated with atrasentan; type: cell-based, human; settings: atrasentan at 1 nM and 25 nM
# [2] = system: kidney tissue of g-ddY mice
# [3] = 10 mg/kg/day vs untreated control
# [4] = 20 mg/kg/day vs untreated control
# [5] = 30 mg/kg/day vs untreated control
smiles,measurement,setting,value
"CCCCN(CCCC)C(=O)CN1C[C@H](c2ccc3c(c2)OCO3)[C@@H](C(=O)O)[C@@H]1c1ccc(OC)cc1 [Atrasentan, (2R,3R,4S)-4-(1,3-benzodioxol-5-yl)-1-[2-(dibutylamino)-2-oxoethyl]-2-(4-methoxyphenyl)pyrrolidine-3-carboxylic acid]",IC50,[1],0.65 nM
same,hallmark gene set enrichment in HRMC model,ET-1 stimulated HRMC,under-expression of hallmark gene sets
same,number of downregulated genes,[2]; 10 mg/kg/day versus control,15 genes
same,number of upregulated genes,[2]; 10 mg/kg/day versus control,25 genes
same,Acnat2 logFC,[2]; 10 mg/kg/day vs control,0.9174
same,Apoc1 logFC,[2]; 10 mg/kg/day vs control,−1.929
same,Arnt1 logFC,[2]; 10 mg/kg/day vs control,1.039
same,Asl logFC,[2]; 10 mg/kg/day vs control,0.707
same,Bckdha logFC,[2]; 10 mg/kg/day vs control,0.5492
same,Bmp6 logFC,[2]; 10 mg/kg/day vs control,0.7141
same,Ccn1 logFC,[2]; 10 mg/kg/day vs control,−1.087
same,Ccn2 logFC,[2]; 10 mg/kg/day vs control,−0.5379
same,Cish logFC,[2]; 10 mg/kg/day vs control,−1.301
same,Cryl1 logFC,[2]; 10 mg/kg/day vs control,0.5206
same,Dbp logFC,[2]; 10 mg/kg/day vs control,−1.205
same,Dpep1 logFC,[2]; 10 mg/kg/day vs control,0.6476
same,Ethe1 logFC,[2]; 10 mg/kg/day vs control,0.941
same,Filipl1 logFC,[2]; 10 mg/kg/day vs control,−0.8186
same,Frmd4b logFC,[2]; 10 mg/kg/day vs control,0.6863
same,Gapdh logFC,[2]; 10 mg/kg/day vs control,0.6257
same,Gem logFC,[2]; 10 mg/kg/day vs control,−1.508
same,Gm15910 logFC,[2]; 10 mg/kg/day vs control,−1.397
same,Hacl1 logFC,[2]; 10 mg/kg/day vs control,0.6805
same,Igf1 logFC,[2]; 10 mg/kg/day vs control,−0.8723
same,Mapt logFC,[2]; 10 mg/kg/day vs control,0.7035
same,Mef2c logFC,[2]; 10 mg/kg/day vs control,−0.6217
same,Mmd logFC,[2]; 10 mg/kg/day vs control,−1.012
same,Mnt logFC,[2]; 10 mg/kg/day vs control,0.6669
same,Ndrg1 logFC,[2]; 10 mg/kg/day vs control,0.9887
same,Npas2 logFC,[2]; 10 mg/kg/day vs control,1.415
same,Nr4a1 logFC,[2]; 10 mg/kg/day vs control,−1.525
same,Pde3b logFC,[2]; 10 mg/kg/day vs control,−0.6611
same,Pdzd3 logFC,[2]; 10 mg/kg/day vs control,0.7268
same,Pdzk1ip1 logFC,[2]; 10 mg/kg/day vs control,0.5308
same,Pfkffb3 logFC,[2]; 10 mg/kg/day vs control,−1.166
same,S100g logFC,[2]; 10 mg/kg/day vs control,0.7546
same,Sirt3 logFC,[2]; 10 mg/kg/day vs control,0.7376
same,Slc5a2 logFC,[2]; 10 mg/kg/day vs control,0.7478
same,Slc6a19 logFC,[2]; 10 mg/kg/day vs control,0.8567
same,Slc7a9 logFC,[2]; 10 mg/kg/day vs control,0.5456
same,Slc16a1 logFC,[2]; 10 mg/kg/day vs control,0.9808
same,Slc19a1 logFC,[2]; 10 mg/kg/day vs control,0.6451
same,Slc34a3 logFC,[2]; 10 mg/kg/day vs control,0.8923
same,Zeb2 logFC,[2]; 10 mg/kg/day vs control,−0.5638
same,ET1 gene signature genes downregulated,[2]; [3],"Grk5, Mllt3, Klf2, Pparg, Hgf, Edn1, Fos, Ptgs2, and IL-1b"
same,ET1 gene signature genes upregulated,[2]; [3],"Ccnd1, Ppara, Agt, Map2k2 and Hoxa9"
same,number of downregulated genes,[2]; 20 mg/kg/day versus control,281 genes
same,number of upregulated genes,[2]; 20 mg/kg/day versus control,214 genes
same,1700101I11Rik logFC,[2]; 20 mg/kg/day vs control,1.658
same,A530016L24Rik logFC,[2]; 20 mg/kg/day vs control,−3.027
same,Abcd2 logFC,[2]; 20 mg/kg/day vs control,−2.686
same,Adcy2 logFC,[2]; 20 mg/kg/day vs control,−2.484
same,Ankef1 logFC,[2]; 20 mg/kg/day vs control,−3.382
same,Apol6 logFC,[2]; 20 mg/kg/day vs control,−3.616
same,Aspdh logFC,[2]; 20 mg/kg/day vs control,0.9646
same,Bche logFC,[2]; 20 mg/kg/day vs control,−4.062
same,C5ar2 logFC,[2]; 20 mg/kg/day vs control,−4.271
same,Cadm3 logFC,[2]; 20 mg/kg/day vs control,−2.439
same,Ccl8 logFC,[2]; 20 mg/kg/day vs control,−2.999
same,Ccl20 logFC,[2]; 20 mg/kg/day vs control,−3.563
same,Clec2h logFC,[2]; 20 mg/kg/day vs control,1.078
same,Cndp1 logFC,[2]; 20 mg/kg/day vs control,0.9373
same,Dio2 logFC,[2]; 20 mg/kg/day vs control,−3.823
same,Dnase1 logFC,[2]; 20 mg/kg/day vs control,1.086
same,Ebf2 logFC,[2]; 20 mg/kg/day vs control,−3.715
same,Fcamr logFC,[2]; 20 mg/kg/day vs control,1.182
same,Frs3 logFC,[2]; 20 mg/kg/day vs control,1.094
same,Ftcd logFC,[2]; 20 mg/kg/day vs control,1.086
same,Glis1 logFC,[2]; 20 mg/kg/day vs control,0.8776
same,Hao2 logFC,[2]; 20 mg/kg/day vs control,0.9855
same,Hrg logFC,[2]; 20 mg/kg/day vs control,4.888
same,Igibp1 logFC,[2]; 20 mg/kg/day vs control,2.82
same,Il1b logFC,[2]; 20 mg/kg/day vs control,−3.029
same,Iv1 logFC,[2]; 20 mg/kg/day vs control,−3.8887
same,Klf15 logFC,[2]; 20 mg/kg/day vs control,0.8799
same,Krt5 logFC,[2]; 20 mg/kg/day vs control,−3.044
same,Lep logFC,[2]; 20 mg/kg/day vs control,−5.905
same,Lgals12 logFC,[2]; 20 mg/kg/day vs control,−2.536
same,Lhx1 logFC,[2]; 20 mg/kg/day vs control,0.9258
same,Ly6d logFC,[2]; 20 mg/kg/day vs control,−3.377
same,Morn2 logFC,[2]; 20 mg/kg/day vs control,0.9375
same,Nat81 logFC,[2]; 20 mg/kg/day vs control,−3.263
same,Ndrg1 logFC,[2]; 20 mg/kg/day vs control,0.8946
same,Npas2 logFC,[2]; 20 mg/kg/day vs control,1.012
same,Otop1 logFC,[2]; 20 mg/kg/day vs control,−5.808
same,Paral1 logFC,[2]; 20 mg/kg/day vs control,−5.133
same,Pfn3 logFC,[2]; 20 mg/kg/day vs control,0.934
same,Plekhs1 logFC,[2]; 20 mg/kg/day vs control,−3.661
same,Prkar2b logFC,[2]; 20 mg/kg/day vs control,−2.468
same,Prodh logFC,[2]; 20 mg/kg/day vs control,0.8987
same,Pvalb logFC,[2]; 20 mg/kg/day vs control,0.9441
same,Ren1 logFC,[2]; 20 mg/kg/day vs control,1.117
same,Slc6a19 logFC,[2]; 20 mg/kg/day vs control,0.9585
same,Slc34a3 logFC,[2]; 20 mg/kg/day vs control,0.9345
same,Sprr2a3 logFC,[2]; 20 mg/kg/day vs control,−4.403
same,Tmem37 logFC,[2]; 20 mg/kg/day vs control,0.9439
same,Tns4 logFC,[2]; 20 mg/kg/day vs control,−2.381
same,ET1 gene signature genes downregulated,[2]; [4],"Nfatc1, Grk5, Klf2, Cav1, Pparg, Itga5, Myc, Ednra, Sell, Hgf, Mmp2, Edn1, Syk, Fos, and IL-1b"
same,ET1 gene signature genes upregulated,[2]; [4],"Ccdn1, Cat, Ppara, Map2k2, Hoxa9, Agt, and Egfr"
same,Ednra and Ednrb gene expression,[2]; 30 mg/kg/day,downregulated
same,number of downregulated genes,[2]; 30 mg/kg/day versus control,768 genes
same,number of upregulated genes,[2]; 30 mg/kg/day versus control,910 genes
same,1700003D09Rik logFC,[2]; 30 mg/kg/day vs control,−2.087
same,1700101I11Rik logFC,[2]; 30 mg/kg/day vs control,1.613
same,A530016L24Rik logFC,[2]; 30 mg/kg/day vs control,−3.0348
same,Adamts17 logFC,[2]; 30 mg/kg/day vs control,−3.191
same,Adcy2 logFC,[2]; 30 mg/kg/day vs control,−2.327
same,Ankef1 logFC,[2]; 30 mg/kg/day vs control,−2.3582
same,Arhgap36 logFC,[2]; 30 mg/kg/day vs control,−2.908
same,Atf3 logFC,[2]; 30 mg/kg/day vs control,−2.22
same,Bhmt logFC,[2]; 30 mg/kg/day vs control,4.173
same,Calb1 logFC,[2]; 30 mg/kg/day vs control,1.211
same,Ccl20 logFC,[2]; 30 mg/kg/day vs control,−2.471
same,Chadl logFC,[2]; 30 mg/kg/day vs control,1.41
same,Clec2h logFC,[2]; 30 mg/kg/day vs control,1.215
same,Clec4d logFC,[2]; 30 mg/kg/day vs control,−4.65
same,Cxcl2 logFC,[2]; 30 mg/kg/day vs control,−2.6664
same,Cyp27b1 logFC,[2]; 30 mg/kg/day vs control,1.35
same,E030018B13Rik logFC,[2]; 30 mg/kg/day vs control,−2.373
same,Ebf2 logFC,[2]; 30 mg/kg/day vs control,−2.386
same,Ethe1 logFC,[2]; 30 mg/kg/day vs control,1.211
same,Fam163b logFC,[2]; 30 mg/kg/day vs control,−2.785
same,Fat3 logFC,[2]; 30 mg/kg/day vs control,−2.067
same,Frs3 logFC,[2]; 30 mg/kg/day vs control,1.176
same,G6pc logFC,[2]; 30 mg/kg/day vs control,1.207
same,Gm20026 logFC,[2]; 30 mg/kg/day vs control,−2.0755
same,Igfbp1 logFC,[2]; 30 mg/kg/day vs control,3.447
same,Igkv3-5 logFC,[2]; 30 mg/kg/day vs control,−2.722
same,Il1b logFC,[2]; 30 mg/kg/day vs control,−2.263
same,Kcnk2 logFC,[2]; 30 mg/kg/day vs control,−2.431
same,Kif1a logFC,[2]; 30 mg/kg/day vs control,−2.108
same,Misp3 logFC,[2]; 30 mg/kg/day vs control,1.307
same,Mogat2 logFC,[2]; 30 mg/kg/day vs control,1.285
same,Ndrg1 logFC,[2]; 30 mg/kg/day vs control,1.197
same,Nepn logFC,[2]; 30 mg/kg/day vs control,1.291
same,Nkx3-1 logFC,[2]; 30 mg/kg/day vs control,1.294
same,Npas2 logFC,[2]; 30 mg/kg/day vs control,1.394
same,Pgam2 logFC,[2]; 30 mg/kg/day vs control,1.24
same,Plch2 logFC,[2]; 30 mg/kg/day vs control,−2.423
same,Pvalb logFC,[2]; 30 mg/kg/day vs control,1.389
same,Ren1 logFC,[2]; 30 mg/kg/day vs control,1.531
same,Rnf182 logFC,[2]; 30 mg/kg/day vs control,−2.817
same,S100g logFC,[2]; 30 mg/kg/day vs control,1.296
same,Slc6a19 logFC,[2]; 30 mg/kg/day vs control,1.238
same,Slc16a1 logFC,[2]; 30 mg/kg/day vs control,1.178
same,Slc34a3 logFC,[2]; 30 mg/kg/day vs control,1.436
same,Stx1b logFC,[2]; 30 mg/kg/day vs control,−2.245
same,Tns4 logFC,[2]; 30 mg/kg/day vs control,−2.443
same,Wnt10a logFC,[2]; 30 mg/kg/day vs control,−2.071
same,Xirp2 logFC,[2]; 30 mg/kg/day vs control,−2.619
same,ET1 gene signature genes downregulated,[2]; [5],"Ednrb, Myc, Mllt3, Hdac7, Ednra, Itga5, Grk5, Pparg, Klf2, Hgf, Mmp2, Sell, Sphk1, Fos, Syk, Edn1, and IL-1b"
same,ET1 gene signature genes upregulated,[2]; [5],"Ccnd1, Agt, Cat, Map2k2, Hoxa9, and Ppara"
same,ET1 (End1) gene expression,"[2]; all three doses (10, 20, 30 mg/kg/day)",downregulated
same,genes overlapping with human specific Atra/ET1 gene signature,[2]; atrasentan treated mice,53 of 60

# — patent US20210353593A1 (Chinook Therapeutics, Inc., priority 2019, published 2021)
